Test results taken from patent US20070212773A1, “Electrical signal measuring device for cells in culture and electrical signal measuring method that uses same device” (priority 2006, published 2007).

System: intestinal Caco-2 cells
Assay: Impedance measurement of Caco-2 cells in culture after adding cupric chloride
Assay type: cell-based
Description: The device used is specifically described as follows. That is, the support body is made of PDMS, and the size of the compartment in the support body (the combined size of the upper compartment and the lower compartment) is 15 mm in length, 6 mm in width, and 1.6 mm in height. This compartment is divided into an upper compartment and a lower compartment each with a height of approximately 0.8 mm using a polyester porous membrane which is provided with a diameter of 0.4 μm and a thickness of 14 μm (code 3450, made by CORNING INC.). Gold-plated brass nail-shaped objects with a length of 15 mm, an external diameter of 0.5 mm, and its circular head portion with a thickness of 0.4 mm and a diameter of 1.2 mm are used as the upper electrode and the lower electrode using a flat surface of the head portion as a measuring surface. Also, the upper electrode is fixed to the support body with its surface opposite to the surface facing the lower electrode in contact with the inside surface of the upper support body, while the lower electrode is fixed to the support body with its surface facing the upper electrode in contact with the semipermeable membrane. At this time, the distance between the surfaces of the upper electrode that faces the lower electrode and the lower electrode is 0.4 mm. Then, these electrodes are connected to an alternating-current power supply. Culturing conditions: As the culture medium, 10% fetal bovine serum, 1% MEM nonessential amino acid solution, 20 mM HEPES buffer solution, […] penicillin, 100 μg streptomycin, and 1 μg amphotericin added to DMEM (Dulbecco's Minimum Essential Medium) is used, and culturing is performed at an ambient temperature of 37 degrees C., with the carbon dioxide concentration maintained at 5%. Measurement condition: Measurement is performed by using a commercially available impedance analyzer, by applying an AC electrical field of 10 mV amplitude (1 Hz to 10 MHz) across the electrodes. Using the device used in Example 1, while culturing intestinal Caco-2 cells to which cupric chloride is added; impedance of the cells was measured. The culturing conditions of the cells and impedance measurement conditions are the same as in Example 1. The culture medium was replaced every two days, with the impedance measurement being performed before and after the culture medium replacement. Culturing was normally performed until the seventh day from the start of culturing. After impedance measurement, cupric chloride was added to a concentration of 30 μM to the culture medium, and the cell culturing was continued as it was from the moment directly after the cupric chloride was added (0 hours) to four hours after the addition. After the passage of four hours, the impedance was measured, and the culture medium containing the cupric chloride was washed away by a culture medium not containing the cupric chloride, accordingly washing was performed while the cells in culture were remained in the device. During this period, the impedance of the cells in culture was arbitrarily measured. In the legend shown in FIG. 3, “3 days” means the third day from the start of culturing, while “7 days (4 hours after addition)” means four hours after addition of cupric chloride to the culture medium on the seventh day from the start of culturing.

SMILES: [Cl][Cu][Cl] [cupric chloride]
- change in impedance amplitude (membranous structure) (30 μM for 4 h, then washed, 25 hours after the addition, breakdown of the membranous structure): reduction
- impedance phase θ around 10^6 Hz region (30 μM for 4 h, then washed, 25 hours after the addition, curve shifted to higher frequency side): −53 degrees
- impedance phase θ around 10^6 Hz region (30 μM for 4 h, then washed, 48 hours after the addition, curve shifted to lower frequency side): −58 degrees
- change in impedance amplitude (membranous structure) (30 μM for 4 h, then washed, 48 hours after the addition, renewal of the membranous structure): increase
- change in impedance amplitude (membranous structure) (30 μM in culture medium, added on seventh day of culturing, until four hours from the addition): hardly any changes
- change in impedance phase spectra curve (30 μM, added on seventh day of culturing, until four hours from the addition): without large changes
